Measured values taken from the supplement of paper PMC11208160.

Experiment: recombinant UMI read abundance after kanamycin selection (control-corrected) (log10(CPM+1)); higher = more efficient recombination; extreme values may be limits of the assay; sequences stand for … in AGTGCAGAGAAAATCGGCCAGTTTTCTCTGCCTGCAGTCCGCATGCCGTGGGACCCCTTGGGTTCTAACCTGTTGCCTAGATTTATGCAGCGGACTGCCTTTCTCCCAAAGTGATAAACCGG…AGGTTGGTTTCACT; site = the 11-nt donor
Protocol: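 Pooled E. coli donor-specificity screen for the IS621 bridge recombinase. Each library member carries a reprogrammed 11-nt donor and a full-length LE bridge RNA expressed in cis from the natural promoter, with a paired donor-binding loop (8-nt LDG + 4-nt RDG) and a target-binding loop fixed to T5. It is co-electroporated with a T5 target plasmid; recombinase is induced with 0.07 mM IPTG and recombinants are selected on kanamycin. UMIs are counted as CPM, averaged over two biological replicates and corrected by the unselected control. Molecule = full bridge RNA written as DNA, built from the T5 scaffold: LDG = donor specificity nt 1-8, RDG = reverse complement of nt 8-11.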
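Note: IS621 bridge recombinase in Escherichia coli cells against a fixed T5 target plasmid.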

Row | Sequence | recombinant UMI read abundance (log10)
1 | AAAAGGCCATGGACCGGTTTTCCCGGTAATCCGTATTTGAC (site AAAAGGCCTGT) | 1.38
2 | AAAAGGCCATGGACCGGTTTTCCCGGTAATCCGTATTTGAC (site ACAAGGCCTGT) | 0
3 | AAAAGGCCATGGACCGGTTTTCCCGGTAATCCGTATTTGAC (site AGAAGGCCTGT) | 0
4 | AAAAGGCCATGGACCGGTTTTCCCGGTAATCCGTATTTGAC (site ATAAGGCCTGT) | 0
5 | AAAAGTACATGGACCGGTTTTCCCGGTAATCCGTATTTGAT (site AAAAGTACTAT) | 1.62
6 | AAAATACCATGGACCGGTTTTCCCGGTAATCCGTATTTGAC (site AAAATACCTGT) | 0
7 | AAACAGACATGGACCGGTTTTCCCGGTAATCCGTATTTGAC (site AAACAGACTGT) | 2.57
8 | AAACAGTCATGGACCGGTTTTCCCGGTAATCCGTATTTGCT (site AAACAGTCTAG) | 2.98
9 | AAACATGCATGGACCGGTTTTCCCGGTAATCCGTATTTGAA (site AAACATGCTTT) | 2.15
10 | AAACGCACATGGACCGGTTTTCCCGGTAATCCGTATTTGTG (site AAACGCACTCA) | 0.245
11 | AAACGGACATGGACCGGTTTTCCCGGTAATCCGTATTTGTA (site AAACGGACTTA) | 1.84
12 | AAACTAACATGGACCGGTTTTCCCGGTAATCCGTATTTGCA (site AAACTAACTTG) | 2.27
13 | AAACTAACATGGACCGGTTTTCCCGGTAATCCGTATTTGCG (site AAACTAACTCG) | 2.09
14 | AAAGAATCATGGACCGGTTTTCCCGGTAATCCGTATTTGCA (site AAAGAATCTTG) | 2.66
15 | AAAGAATCATGGACCGGTTTTCCCGGTAATCCGTATTTGCA (site ACAGTATCTTG) | 0.902
16 | AAAGATACATGGACCGGTTTTCCCGGTAATCCGTATTTGTT (site AAAGATACTAA) | 2.21
17 | AAAGATTCATGGACCGGTTTTCCCGGTAATCCGTATTTGTT (site AAAGATTCTAA) | 2.82
18 | AAAGATTCATGGACCGGTTTTCCCGGTAATCCGTATTTGTT (site CAAGATTCTAA) | 2.12
19 | AAAGATTCATGGACCGGTTTTCCCGGTAATCCGTATTTGTT (site GAAGATTCTAA) | 0.233
20 | AAAGATTCATGGACCGGTTTTCCCGGTAATCCGTATTTGTT (site TAAGATTCTAA) | 2.48
21 | AAAGTATCATGGACCGGTTTTCCCGGTAATCCGTATTTGGA (site AAAGTATCTTC) | 2.45
22 | AAAGTATCATGGACCGGTTTTCCCGGTAATCCGTATTTGGA (site ACAGTATCTTG) | 0
23 | AAATAGGCATGGACCGGTTTTCCCGGTAATCCGTATTTGCC (site AAATAGGCTGG) | 1.07
24 | AAATATACATGGACCGGTTTTCCCGGTAATCCGTATTTGAC (site AAATATACTGT) | 2.52

Row | Sequence | recombinant UMI read abundance (log10)
25 | AACAACCCATGGACCGGTTTTCCCGGTAATCCGTATTTGAA (site AACAACCCTTT) | 0.192
26 | AACAAGTCATGGACCGGTTTTCCCGGTAATCCGTATTTGAC (site AACAAGTCTGT) | 1.86
27 | AACAATACATGGACCGGTTTTCCCGGTAATCCGTATTTGTC (site AACAATACTGA) | 1.64
28 | AACAGTGCATGGACCGGTTTTCCCGGTAATCCGTATTTGTC (site AACAGTGCTGA) | 2.39
29 | AACCATCCATGGACCGGTTTTCCCGGTAATCCGTATTTGAT (site AACCATCCTAT) | 0.499
30 | AACCATCCATGGACCGGTTTTCCCGGTAATCCGTATTTGAT (site AACCCTCCTAT) | 0.0146
31 | AACCATCCATGGACCGGTTTTCCCGGTAATCCGTATTTGAT (site AACCGTCCTAT) | 0.00892
32 | AACCATCCATGGACCGGTTTTCCCGGTAATCCGTATTTGAT (site AACCTTCCTAT) | 0.431
33 | AACCCCGCATGGACCGGTTTTCCCGGTAATCCGTATTTGAC (site AACCCCGCTGT) | 2.32
34 | AACCGAGCATGGACCGGTTTTCCCGGTAATCCGTATTTGTT (site AACCGAGCTAA) | 0.146
35 | AACCGTTCATGGACCGGTTTTCCCGGTAATCCGTATTTGAT (site AACCGTACTAT) | 0.00732
36 | AACCGTTCATGGACCGGTTTTCCCGGTAATCCGTATTTGAT (site AACCGTCCTAT) | 0.012
37 | AACCGTTCATGGACCGGTTTTCCCGGTAATCCGTATTTGAT (site AACCGTGCTAT) | 0.0146
38 | AACCGTTCATGGACCGGTTTTCCCGGTAATCCGTATTTGAT (site AACCGTTCTAT) | 0.348
39 | AACCTTTCATGGACCGGTTTTCCCGGTAATCCGTATTTGAC (site AACCTTTCTGT) | 0
40 | AACCTTTCATGGACCGGTTTTCCCGGTAATCCGTATTTGAC (site ACCCTTTCTGT) | 0
41 | AACCTTTCATGGACCGGTTTTCCCGGTAATCCGTATTTGAC (site AGCCTTTCTGT) | 0
42 | AACCTTTCATGGACCGGTTTTCCCGGTAATCCGTATTTGAC (site ATCCTTTCTGT) | 0
43 | AACGACCCATGGACCGGTTTTCCCGGTAATCCGTATTTGAG (site AACGACCCTCT) | 0.029
44 | AACGATCCATGGACCGGTTTTCCCGGTAATCCGTATTTGTA (site AACGATCCTTA) | 1.42
45 | AACGCCGCATGGACCGGTTTTCCCGGTAATCCGTATTTGAG (site AACGCCGCTCT) | 0.916
46 | AACGGGACATGGACCGGTTTTCCCGGTAATCCGTATTTGAT (site AACGGGACTAT) | 2.44
47 | AACTATTCATGGACCGGTTTTCCCGGTAATCCGTATTTGTA (site AACTATTCTTA) | 2.2
48 | AACTCAGCATGGACCGGTTTTCCCGGTAATCCGTATTTGGG (site AACTCAGCTCC) | 0.0924

Row | Sequence | recombinant UMI read abundance (log10)
49 | AACTCAGCATGGACCGGTTTTCCCGGTAATCCGTATTTGGG (site ACCTCAGCTCC) | 0.0111
50 | AACTCAGCATGGACCGGTTTTCCCGGTAATCCGTATTTGGG (site AGCTCAGCTCC) | 0.00784
51 | AACTCAGCATGGACCGGTTTTCCCGGTAATCCGTATTTGGG (site ATCTCAGCTCC) | 0.192
52 | AACTGCGCATGGACCGGTTTTCCCGGTAATCCGTATTTGAT (site AACTGCGCTAT) | 1.34
53 | AACTGCGCATGGACCGGTTTTCCCGGTAATCCGTATTTGTG (site AACTGCGCTCA) | 0.435
54 | AACTGTCCATGGACCGGTTTTCCCGGTAATCCGTATTTGTG (site AACTGTCCTCA) | 0.0176
55 | AACTTGACATGGACCGGTTTTCCCGGTAATCCGTATTTGCT (site AACTTGACTAG) | 0.971
56 | AACTTGACATGGACCGGTTTTCCCGGTAATCCGTATTTGCT (site CACTTGACTAG) | 1.12
57 | AACTTGACATGGACCGGTTTTCCCGGTAATCCGTATTTGCT (site GACTTGACTAG) | 0.665
58 | AACTTGACATGGACCGGTTTTCCCGGTAATCCGTATTTGCT (site TACTTGACTAG) | 1.24
59 | AAGAAAACATGGACCGGTTTTCCCGGTAATCCGTATTTGGT (site AAGAAAACTAC) | 1.5
60 | AAGAACCCATGGACCGGTTTTCCCGGTAATCCGTATTTGAA (site AAGAACCCTTT) | 1.5
61 | AAGAAGACATGGACCGGTTTTCCCGGTAATCCGTATTTGCC (site AAGAAGACTGG) | 2.47
62 | AAGAAGACATGGACCGGTTTTCCCGGTAATCCGTATTTGCC (site AGGAAGACTTG) | 0.0155
63 | AAGAAGCCATGGACCGGTTTTCCCGGTAATCCGTATTTGAC (site AAGAAGCCTGT) | 0
64 | AAGCACACATGGACCGGTTTTCCCGGTAATCCGTATTTGTT (site AAGCACACTAA) | 1.8
65 | AAGCACGCATGGACCGGTTTTCCCGGTAATCCGTATTTGGA (site AAGCACGCTAC) | 0.0278
66 | AAGCACGCATGGACCGGTTTTCCCGGTAATCCGTATTTGGA (site AAGCACGCTCC) | 0.0219
67 | AAGCACGCATGGACCGGTTTTCCCGGTAATCCGTATTTGGA (site AAGCACGCTGC) | 0
68 | AAGCACGCATGGACCGGTTTTCCCGGTAATCCGTATTTGGA (site AAGCACGCTTC) | 0.817
69 | AAGCACGCATGGACCGGTTTTCCCGGTAATCCGTATTTGGG (site AAACACGCTCC) | 0.00685
70 | AAGCACGCATGGACCGGTTTTCCCGGTAATCCGTATTTGGG (site AACCACGCTCC) | 0.0266
71 | AAGCACGCATGGACCGGTTTTCCCGGTAATCCGTATTTGGG (site AAGAACGCTCC) | 0.0117
72 | AAGCACGCATGGACCGGTTTTCCCGGTAATCCGTATTTGGG (site AAGCAAGCTCC) | 0.0142
